Values of other authors, collected in patent US5370873A, “Therapeutic compounds derived from the neem tree” (priority 1992, dated 1994).
Where two headings read alike, the source gives them in different places.

Legend:
[1] = test system: murine P-388 lymphocytic leukemia cell line
[2] = in vivo
[3] = not given; remark: listed apart in the source

Compound: 1,2-diapoxyazadiradione
- ED50, murine P-388 lymphocytic leukemia cell line [1]: 8.5 mg

Compound: 7-acetyl neotrichilenone
- ED50, murine P-388 lymphocytic leukemia cell line [1]: 10 mg

Compound: C/C=C(\C)C(=O)O[C@H]1C[C@@H](OC(C)=O)[C@@]2(C(=O)OC)CO[C@H]3[C@@H](O)[C@@](C)([C@]45O[C@@]4(C)[C@H]4C[C@@H]5O[C@@H]5OC=C[C@@]54O)[C@H]4[C@]1(CO[C@]4(O)C(=O)OC)[C@@H]32 [azadiractin]
- insect feeding repellency (insect): very potent insect feeding repellents

Compound: Neem oil
- local or systemic side effects in human subjects [2]: no local or systemic side effects
- local or systemic side effects in human subjects ([2]; po): no local or systemic side effects

Compound: CC(=O)O[C@@H]1C[C@H]2C(C)(C)C(=O)C=C[C@]2(C)[C@H]2CC[C@@]3(C)[C@H](c4ccoc4)OC(=O)[C@H]4O[C@]43[C@@]21C [gedunin]
- inhibition of development of Plasmodium falciparum in vitro (Plasmodium falciparum): inhibit the development of the human malarial parasite Plasmodium falciparum in vitro

Compound: nimbidin
- systemic toxicity in rats: failed to demonstrate any systemic toxicity
- systemic toxicity in dogs [3]: failed to demonstrate any systemic toxicity
